Test results taken from paper PMC7767506, “Synthesis and Characterization of Store-Operated Calcium Entry Inhibitors Active in the Submicromolar Range” (International Journal of Molecular Sciences, 2020).
Values joined by “and” are separate entries in the source; they are usually repeats but may differ in a detail not shown here. Equal entries are not always repeated. Where two headings read alike, the source gives them in different places.

Columns and labels:
Format in all cases: cell-based, human
[1] = system: caspase-3 activity in Jurkat cells; experiment: Fluorometric caspase-3 activity assay (Ac-DEVD-AFC) in Jurkat cells
Method: To verify the mechanism of cell death induced by compound P11, we next performed caspase-3 activity assays using the fluorogenic Ac-DEVD-AFC substrate as well as a TUNEL assay.
Caspase-3 activity was measured using the fluorogenic substrate Ac-DEVD-AFC (Tebu-bio, Le Perray-en-Yvelines, France) according to the manufacturer’s instructions. Briefly, 48-well plates were seeded with 10^6 Jurkat T cells per well. Cells were then incubated for 24 h with 0, 1, or 10 µg/mL PHA and 0 to 1 µM P11 in complete culture medium. After 24 h, cells were collected and lysed in RIPA lysis buffer supplemented with protease inhibitor cocktails (Life Science Biorad, Marnes la Coquette, France). The protein samples were quantified using the DC protein assay reagent (Biorad, Les Ulis, France). Cell lysates (50 µg) were diluted with reaction buffer (200 mM Hepes pH 7.4, 1 mM EDTA, 20% sucrose and 20 mM dithiothreitol) and incubated with the fluorogenic substrate (20 µM final concentration) for 45 min up to 7 h at 37 °C. The release of 7-amino-4-trifluoromethylcoumarin (AFC) was measured by fluorescence (excitation at 405 nm, emission at 505 nm) using a Victor3 plate reader (Perkin Elmer, Courtaboeuf, France).

[2] = system: Jurkat cells; experiment: Cell death by trypan blue staining of Jurkat cells
Method: As this diminution in IL-2 synthesis can both be explained by the decrease of its synthesis by all cells, or by a decrease in the number of cells that can synthesize IL-2, we next evaluated cell death by trypan blue staining in the presence of PHA stimulation with and without the addition of compound P11.
Forty-eight-well plates were seeded with 10^6 Jurkat T cells per well. Cells were then incubated for 24 h with or without 10 µg/mL PHA and 0 to 1 µM P11 in complete culture medium. After 24 h, supernatants were collected, and IL-2 amounts were quantified using a Quantikine Human IL-2 Immunoassay (R&D Systems Europe, Lille, France). Optical density (OD) was measured at 450 nm using a Victor3 plate reader (Perkin Elmer, Courtaboeuf, France). The concentration of supernatant IL-2 was determined from the OD curve obtained with the standard. Results were the mean of four repeats. In parallel plates, cell viability was accessed after treatment with trypan blue and counting with a Malassez hematimeter (Sigma-Aldrich, Saint Quentin Fallavier, France).

[3] = system: Jurkat cell SOCE; experiment: Thapsigargin-induced SOCE in Jurkat cells, Indo-1 [Ca2+]cyt measurement; settings: Jurkat cells; for Ki: 1 µM thapsigargin 10 min, compound added 30 s prior to 1 mM CaCl2
Method: To visualize SOCE, we performed a classical protocol: Jurkat cells in Ca^2+-free HBS medium are stimulated by 1 µM thapsigargin (TG, black arrow, Figure 2A) during 600 s to allow the release of Ca^2+ ions by the ER, and the subsequent opening of the store-operated Ca^2+ channels (SOCC). Addition of 1 mM CaCl2 allowed for a massive entry of Ca^2+ ions through SOCC leading thus to an increase of the cytosolic calcium concentration ([Ca^2+]cyt). To test 2-APB and its analogues, different concentrations of compounds were added 30 s prior to Ca^2+ addition.
[Ca^2+]cyt was recorded by a fluorimetric ratio technique as previously described. Leukocytes were spun and resuspended at a density of 10^6 cells/mL in Hepes buffered saline (HBS; 135 mM NaCl, 5.9 mM KCl, 1.2 mM MgCl2, 11.6 mM Hepes, 11.5 mM glucose adjusted to pH 7.3 with NaOH). Due to the presence of 0.002% Ca^2+ in the NaCl, this HBS medium contained 0.1 mM of Ca^2+. Then, cells were incubated in the dark with 4 μM Indo-1-AM for one hour at room temperature under slow agitation. Cells were then centrifuged and resuspended in HBS medium before measurement. To perform the experiments, 0.5 to 1 × 10^6 cells were suspended in 2 mL HBS in a quartz cuvette and inserted into a spectrofluorophotometer (RF-1501 Shimadzu Corporation, Kyoto, Japan) connected to a PC computer (Dell Computer Corp., Montpellier, France). A temperature of 37°C was maintained by circulating water from a bath. Ultraviolet light of 360 nm was used for excitation of Indo-1, and emissions at 405 and 480 nm were recorded. Background and autofluorescence of the cell suspension were subtracted from the recordings. The maximum Indo-1 fluorescence (Rmax) was obtained by adding 1 µM ionomycin to the cell suspension in the presence of 10 mM extracellular CaCl2. Minimum fluorescence was determined following the depletion of external Ca^2+ with 5 mM EGTA.
To visualize the SOCE, cells were placed into the quartz cuvette and 0.5 EGTA was added just before the beginning of the recordings. To induce the SOCE, the cells were treated with 1 μM thapsigargin (TG) during 10 min in Ca^2+-free HBS to induce Ca^2+ release from the ER and the opening of SOCE channels. Then, 1 mM CaCl2 was added to measure the change in [Ca^2+]cyt subsequently to Ca^2+ influx. In the dose-response experiments, different concentrations of 2-APB and its analogs were added 30 s prior to Ca^2+ readdition.

[4] = system: Mn2+ influx through SOCC in Jurkat cells; experiment: Mn2+ influx by Indo-1 quenching in Jurkat cells; settings: 1 µM
Text: As [Ca^2+]cyt results from a balance between Ca^2+ influx and efflux, this decay was due to the activity of the plasma membrane Ca^2+ ATPases (“PMCA”) and the Na^+/Ca^2+ exchanger (“NCX”) counteracting the SOCE (TG has blocked the SERCA activity, impairing Ca^2+ uptake in the ER). To ensure that compound P11 acted on the SOCE and not on the Ca^2+-efflux mechanisms, we next performed a Mn^2+-quenching experiment with Indo-1. Mn^2+ ions enter the cells through SOCC but cannot be pumped outside the cells by PMCA and NCX; once in the cells, Mn^2+ bound to Indo-1 and quenched its fluorescence measured at 430 nm. Thus, an increase of the Mn^2+ influx amplitude was associated with an increase of the Indo-1 quenching speed, and reversely.
After a 10 min TG treatment to open the SOCC, 100 µM MnCl2 was added. Mn^2+ induced a quenching rate of −0.89 ± 0.05% Fo/s (n = 3, Figure 3A). […]
To study directly the divalent ion influx through the SOCC with selected 2-APB analogs, we performed Mn^2+ quenching experiments. Mn^2+ ions bind to Indo-1 and quench the 430 nm emission wavelength fluorescence after excitation at 360 nm. The decrease of fluorescence is directly dependent on Mn^2+ entry through SOCC. […] After 60 s a 2-APB analog was added as indicated and the change in the curve slope was measured.

2-(dibiphenyl-4-ylboryloxy)ethanamine [P11]
caspase-3 activity ([1]; 10 µg/mL PHA + 1 µM P11, 24 h): 3332 ± 113 AU
caspase-3 activity, compound alone ([1]; P11 alone, up to 1 µM): did not induce any increase
concentration giving maximal activating effect on caspase-3 activity ([1]; with 10 µg/mL PHA, 24 h): 10 nM
dead cells (trypan blue) ([2]; 1 µM P11 alone, 24 h): 4.0 ± 0.4%
dead cells (trypan blue) ([2]; PHA + 1 µM P11, 24 h): 33.2 ± 1.3%
concentration of complete/full SOCE inhibition [3]: below 1 µM
Ki ([3]; read-out: Ki (nM), inhibition constant on SOCE): ~75 nM and 75 nM
Ki ([3]; read-out: Ki (µM), inhibition constant on SOCE): < 1000 nM
concentration at which SOCE is totally blocked ([3]; Figure 2B): > 100 nM
blockade of Mn2+ quenching rate [4]: ≈ 90%
Indo-1 quenching rate by Mn2+ ([4]; added 30 s prior to 100 µM MnCl2): -0.09 ± 0.01 % Fo/s
